Data set [1] has as its system subcutaneous P3x63Ag8.653 tumor. Nature of the data set: In vivo P3x63Ag8.653 tumor transplant model. Set-up: species or system mice. As to the method:
The animal experiments were conducted under the guidelines of the “Regulations for the Administration of Affairs Concerning Experimental Animals” (revised 2017, State Council No. 676). For the P3x63Ag8.653 tumor development, male mice were subcutaneously injected with 200 μL murine P3x63Ag8.653 cells with a density of 1 × 10^7/mL. On the eighth day after injection, the transplanted mice were randomized into treatment and control groups. The tested compounds were administrated orally at the prescribed dose biweekly for two weeks. After two weeks of administration, mice were executed, and the tumor tissues were dissected and weighed. T/C was calculated according to the following formula: T/C = the mean RTV of the treated group/the mean RTV of the control group, where RTV is the relative tumor volume = Vt/V0 (Vt, the tumor volume measured at the end of treatment; V0, the tumor volume measured at the beginning of treatment).

Another data set relates to HL-7702. Nature of the data set: Cell proliferation analysis (MTT), normal cells. It is filed as cell-based. As to conditions: Homo sapiens, L02, non-malignant cell line, 48 h, read-out: Anti-proliferative activity IC50, HL-7702. Here is the method: (§1) All tumor cell lines in the current research were grown in a certain growth medium containing 10% FBS and 1% (v/v/v) penicillin–streptomycin–amphotericin at 37 °C in 5% CO2. Cells were seeded into 96-well plates at a density of 8 × 10^3 cells per well for tumor adherent cells and 2 × 10^4 cells per well for tumor-suspended cells in a final volume of 100 μL. After 12 h, 100 μL of various concentrations of compounds was added to each and incubated for 48 h. A 0.5% MTT solution was added per well before the intermixture was incubated for another 4 h, and formazan formed from MTT was extracted by adding […] of DMSO rocking for 15 min. Absorbance was measured at 570 nm using a Spark multimode microplate from Tecan. The IC50 values were calculated according to the inhibition ratios.

The test system of another data set is HEK293. As to the kind of experiment: Cell proliferation analysis (MTT), normal cells. Type of data set: cell-based. The settings on record: Homo sapiens, non-malignant cell line, 48 h, read-out: Anti-proliferative activity IC50, HEK293. As to the method:
as §1

The next data set concerns Hela. As to the kind of experiment: Cell proliferation analysis (MTT). It is filed as cell-based. As to conditions: Homo sapiens, 48 h, read-out: Anti-proliferative activity IC50, Hela. Here is the method: as §1
A further data set has as its system ARP-1. Nature of the data set: Cell proliferation analysis (MTT). Type of data set: cell-based. As to conditions: 48 h, read-out: Anti-proliferative activity IC50, ARP-1. As to the method:
as §1

The test system of the next data set is U251. Nature of the data set: Cell proliferation analysis (MTT). Type of data set: cell-based. As to conditions: Homo sapiens, U-251, 48 h, read-out: Anti-proliferative activity IC50, U251. As to the method: as §1
For another data set, the system named is A2780. Nature of the data set: Cell proliferation analysis (MTT). It is filed as cell-based. The settings on record: Homo sapiens, 48 h, read-out: Anti-proliferative activity IC50, A2780. As to the method:
as §1

Another data set relates to HT-29. As to the kind of experiment: Cell proliferation analysis (MTT). It is filed as cell-based. As to conditions: Homo sapiens, 48 h, read-out: Anti-proliferative activity IC50, HT-29. Here is the method: as §1
A further data set deals with SP2. As to the kind of experiment: Cell proliferation analysis (MTT). As to conditions: 48 h, read-out: Anti-proliferative activity IC50, SP2. Type of data set: cell-based. Here is the method: as §1
The subject of the next data set is RPMI-8266. As to the kind of experiment: Cell proliferation analysis (MTT). Type of data set: cell-based. The settings on record: RPMI8266, 48 h, read-out: Anti-proliferative activity IC50, RPMI-8266. Here is the method: as §1
A further data set deals with U266. As to the kind of experiment: Cell proliferation analysis (MTT). Type of data set: cell-based. As to conditions: Homo sapiens, U-266, 48 h, read-out: Anti-proliferative activity IC50, U266. As to the method:
as §1

A further data set relates to KG1. Nature of the data set: Cell proliferation analysis (MTT). Type of data set: cell-based. The settings on record: Homo sapiens, KG-1, 48 h, read-out: Anti-proliferative activity IC50, KG1. Here is the method:
as §1

The next data set deals with PC3. Nature of the data set: Cell proliferation analysis (MTT). It is filed as cell-based. As to conditions: Homo sapiens, PC-3, 48 h, read-out: Anti-proliferative activity IC50, PC3. Here is the method:
as §1

Another data set has as its system HEL. As to the kind of experiment: Cell proliferation analysis (MTT). Type of data set: cell-based. The settings on record: Homo sapiens, 48 h, read-out: Anti-proliferative activity IC50, HEL. Here is the method:
as §1

In another data set the test system is HCT116. As to the kind of experiment: Cell proliferation analysis (MTT). As to conditions: Homo sapiens, HCT-116, 48 h, read-out: Anti-proliferative activity IC50, HCT116. It is filed as cell-based. As to the method: as §1
The subject of the next data set is MM.1S. Nature of the data set: Cell proliferation analysis (MTT). It is filed as cell-based. As to conditions: Homo sapiens, MM1.S, 48 h, read-out: Anti-proliferative activity IC50, MM.1S. Here is the method: as §1
Another data set concerns MDA-MB-231. As to the kind of experiment: Cell proliferation analysis (MTT). Type of data set: cell-based. As to conditions: Homo sapiens, 48 h, read-out: Anti-proliferative activity IC50, MDA-MB-231. Here is the method:
as §1

In data set [2] the test system is cleaved caspase-3 in MM1.S cells. Nature of the data set: Western blot analysis, caspase-3 cleavage. It is filed as cell-based. The settings on record: MM1.S, 1, 2 and 4 µM, 24 h. Here is the method: MM1.S cells were seeded in 6-well plates with a density of 2.5 × 10^6 cells/well. Then, the cells were cultured with 1, 2, and 4 μM BC-05 and 10 nM ixazomib, respectively. After incubation for 24 h, the cells were collected, and total proteins were extracted via RIPA containing a 2% protease inhibitor cocktail. Cell lysates were centrifugated at 4 °C, 12,000 rpm for 15 min, and the supernatants were collected and quantified with BCA assay. After being boiled at 100 °C for 10 min in a NuPAGE lithium dodecyl sulfate (LDS) sample buffer (5X), equivalent samples were separated by 12% sodium dodecyl-sulfate polyacrylamide gel electrophoresis at 120 V, transferred to immune-blot poly(vinylidene fluoride) (PVDF) membranes (Merck Millipore, Burlington, MA, USA) at 4 °C and then blocked by 5% non-fat milk in TBST for an hour. The membranes were incubated overnight at 4 °C with certain primary antibodies, which were deliquates by an antibody dilution buffer (Boster Bio, Pleasanton, CA, USA) and then washed with TBST. After incubating with a horseradish (HRP)-conjugated secondary antibody for 1 h at room temperature, the membranes were washed five times with TBST for 5 min. The images were visualized on the Tanon-5200 Chemiluminescent Imaging System via luminol reaction. […]

The source of these data is publication PMC10489073 (Molecules, 2023).

SMILES strings stand for the structures.

For the compound `CC(C)C[C@H](NC(=O)[C@@H](O)[C@H](N)Cc1ccccc1)B1OC(=O)C(CC(=O)O)(CC(=O)O)O1` [BC-05, 2,2′-(2-((R)-1-((2S,3R)-3-amino-2-hydroxy-4-phenylbutanamido)-3-methylbutyl)-5-oxo-1,3,2-dioxaborolane-4,4-diyl)diacetic acid], in data set [1] (0.008 mmol/kg oral, two weeks), the “T/C (relative tumor volume)” value came out at 31.2%. Also, in [1] (tumor-bearing mice, during oral administration), the “body weight loss and side effects” value was “No obvious body weight loss and discernible side effects”. Moreover, the IC50 in the data set on HL-7702 was over 200 µM; in the data set with HEK293 it was over 200 µM; in the data set on Hela it was 83.1 ± 8.79 µM; in the data set on ARP-1 it was 10.2 ± 1.23 µM; in the data set on U251, 47.5 ± 11.9 µM; in the data set on A2780 it was 33.7 ± 0.99 µM. The IC50 is 12.5 ± 1.21 µM in the data set on HT-29; 14.7 ± 4.91 µM with SP2; 15.1 ± 2.23 µM in the data set with RPMI-8266; 13.7 ± 1.43 µM with U266; 41.6 ± 4.11 µM in the data set on KG1; 47.4 ± 4.22 µM with PC3. The IC50 in the data set on HEL was determined as 13.3 ± 2.81 µM; with HCT116, 86.7 ± 7.34 µM; in the data set with MM.1S, 1.53 ± 0.24 µM; with MDA-MB-231, 13.3 ± 0.49 µM. Also, the “Caspase-3 cleavage (Western blot)” value in data set [2] is given as “obvious”.
